Source: patent publication US12410171B2, “Tropomyosin receptor kinase (TRK) degradation compounds and methods of use” (Cullgen (Shanghai), Inc., priority 2020, dated 2025)
Where two headings read alike, the source gives them in different places.

Key:
KM12 cells = experiment: KM12 cell viability (CellTiter-Glo); type: cell-based; details: Homo sapiens
Method in brief: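 Three-day exposure of KM12 cells (5000/well, RPMI 1640 with 10% FBS, 37 °C, 5% CO2) to compound dilution series, 3-fold over 8 or 11 points (top 1000 nM in the 8-point format) or 2-fold over 12. CellTiter-Glo readout, with IC50 fitted by nonlinear least-squares regression.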

TPM3-TRKA fusion protein = molecular target: T1, TPM3-TRKA fusion protein (Homo sapiens, UniProt P04629); experiment: TPM3-TRKA fusion protein levels in KM12 cells (Western blot); type: cell-based; details: read-out: Degradation (at 10 nM)
T1 construct: The resulted chimeric proteins always retain the kinase domain of TRK proteins; TPM3 (fusion partner, N-terminal part of tropomyosin alpha-3, P06753); endogenous in cells; host or cells: KM12 colon cancer cells; the other entry of the earlier key: TPM3 (P06753, Tropomyosin alpha-3 chain)
Method in brief: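 TPM3-TRKA levels were assessed by Western blot with chemiluminescent detection and band densitometry, after SDS-PAGE of BCA-normalized RIPA lysates. Before lysis, KM12 cells received DMSO, compounds or matched control compounds at concentrations including 0.1, 1, 10 and 100 nM and 0.4–30 nM. Exposures lasted 4 h, 8–16 h or 16 h.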

[1] = 72 h, KM12 cell viability, CellTiter-Glo, three days treatment, read-out: IC50
[2] = 16 h, TPM3-TRKA degradation in KM12 cells at 10 nM compound, category of percentage degradation

T1 sequence (P04629 with tags, fused parts or gaps): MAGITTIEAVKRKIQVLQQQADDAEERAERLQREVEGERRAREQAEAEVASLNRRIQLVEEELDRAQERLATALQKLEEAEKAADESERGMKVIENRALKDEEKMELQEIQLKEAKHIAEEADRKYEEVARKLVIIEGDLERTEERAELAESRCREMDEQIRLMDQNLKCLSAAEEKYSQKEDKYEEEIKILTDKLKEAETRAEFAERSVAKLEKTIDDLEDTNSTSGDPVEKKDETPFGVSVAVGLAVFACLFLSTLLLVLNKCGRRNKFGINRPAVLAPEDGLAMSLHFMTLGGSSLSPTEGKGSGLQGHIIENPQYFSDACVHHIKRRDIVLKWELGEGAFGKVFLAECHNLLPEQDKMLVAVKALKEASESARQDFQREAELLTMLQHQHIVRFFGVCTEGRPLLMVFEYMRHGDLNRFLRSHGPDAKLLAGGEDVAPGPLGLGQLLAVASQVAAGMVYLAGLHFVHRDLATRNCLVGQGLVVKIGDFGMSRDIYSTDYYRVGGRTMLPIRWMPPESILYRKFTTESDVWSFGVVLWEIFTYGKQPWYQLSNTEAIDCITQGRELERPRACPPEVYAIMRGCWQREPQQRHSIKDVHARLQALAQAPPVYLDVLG

O=C1CCC(N2Cc3ccc(N4CC(CN5CCN(c6ccc(C(=O)Nc7n[nH]c8ccc(Cc9cc(F)cc(F)c9)cc78)c(NC7CCOCC7)c6)CC5)C4)cc3C2=O)C(=O)N1 (centres unmarked) [TR-318, N-(5-(3,5-difluorobenzyl)-1H-indazol-3-yl)-4-(4-((1-(2-(2,6-dioxopiperidin-3-yl)-3-oxoisoindolin-5-yl)azetidin-3-yl)methyl)piperazin-1-yl)-2-((tetrahydro-2H-pyran-4-yl)amino)benzamide]
IC50 (KM12 cells; [1]): 2.4 nM
percent degradation of TPM3-TRKA protein at 0.01 µM (TPM3-TRKA fusion protein; [2]): > 80%

Cn1c(=O)n(C2CCC(=O)NC2=O)c2ccc(C#CCCN3CCN(c4ccc(C(=O)Nc5n[nH]c6ccc(Cc7cc(F)cc(F)c7)cc56)c(NC5CCOCC5)c4)CC3)cc21 (centres unmarked) [TR-319, N-(5-(3,5-difluorobenzyl)-1H-indazol-3-yl)-4-(4-(4-(1-(2,6-dioxopiperidin-3-yl)-3-methyl-2-oxo-2,3-dihydro-1H-benzo[d]imidazol-5-yl)but-3-yn-1-yl)piperazin-1-yl)-2-((tetrahydro-2H-pyran-4-yl)amino)benzamide]
IC50 (KM12 cells; [1]): 5.7 nM
percent degradation of TPM3-TRKA protein at 0.01 µM (TPM3-TRKA fusion protein; [2]): > 80%

Cn1c(=O)n(C2CCC(=O)NC2=O)c2ccc(CCCCN3CCN(c4ccc(C(=O)Nc5n[nH]c6ccc(Cc7cc(F)cc(F)c7)cc56)c(NC5CCOCC5)c4)CC3)cc21 (stereo not drawn) [TR-320, N—(S-(3,5-difluorobenzyl)-1H-indazol-3-yl)-4-(4-(4-(1-(2,6-dioxopiperidin-3-yl)-3-methyl-2-oxo-2,3-dihydro-1H-benzo[d]imidazol-5-yl)butyl)piperazin-1-yl)-2-((tetrahydro-2H-pyran-4-yl)amino)benzamide]
IC50 (KM12 cells; [1]): 1.4 nM
percent degradation of TPM3-TRKA protein at 0.01 µM (TPM3-TRKA fusion protein; [2]): > 80%

Cn1c(=O)n(C2CCC(=O)NC2=O)c2ccc(N3CC(CN4CCN(c5ccc(C(=O)Nc6n[nH]c7ccc(Cc8cc(F)cc(F)c8)cc67)c(NC6CCOCC6)c5)CC4)C3)cc21 (centres unmarked) [TR-321, N-(5-(3,5-difluorobenzyl)-1H-indazol-3-yl)-4-(4-((1-(1-(2,6-dioxopiperidin-3-yl)-3-methyl-2-oxo-2,3-dihydro-1H-benzo[d]imidazol-5-yl)azetidin-3-yl)methyl)piperazin-1-yl)-2-((tetrahydro-2H-pyran-4-yl)amino)benzamide]
IC50 (KM12 cells; [1]): 2.3 nM
percent degradation of TPM3-TRKA protein at 0.01 µM (TPM3-TRKA fusion protein; [2]): > 80%

Cn1c(=O)n(C2CCC(=O)NC2=O)c2cccc(OCCN3CCN(c4ccc(C(=O)Nc5n[nH]c6ccc(Cc7cc(F)cc(F)c7)cc56)c(NC5CCOCC5)c4)CC3)c21 (centres unmarked) [TR-322, N-(5-(3,5˜Difluorobenzyl)-1H-indazol-3-yl)-4-(4-(2-((1-(2,6-dioxopiperidin-3-yl)-3-methyl-2-oxo-2,3-dihydro-1H-benzo[d]imidazol-4-yl)oxy)ethyl)piperazin-1-yl)-2-((tetrahydro-2H-pyran˜4-yl)amino)benzamide]
IC50 (KM12 cells; KM12, 72 h): 168 nM
percent degradation of TPM3-TRKA protein at 0.01 µM (TPM3-TRKA fusion protein; KM12, 16 h): < 50%

O=C1CCC(N2Cc3cc(C#CC4CCN(c5ccc(C(=O)Nc6n[nH]c7ccc(Cc8cc(F)cc(F)c8)cc67)c(NC6CCOCC6)c5)CC4)ccc3C2=O)C(=O)N1 (centres unmarked) [TR-323, N-(5-(3,5-Difluorobenzyl)-1H-indazol-3-yl)-4-(4-((2-(2,6-dioxopiperidin-3-yl)-1-oxoisoindolin-5-yl)ethynyl)piperidin-1-yl)-2-((tetrahydro-2H-pyran-4-yl)amino)benzamide]
IC50 (KM12 cells; [1]): 31 nM
percent degradation of TPM3-TRKA protein at 0.01 µM (TPM3-TRKA fusion protein; KM12, 16 h): > 80%

Cn1c(=O)n(C2CCC(=O)NC2=O)c2ccc(NCCN3CCN(c4ccc(C(=O)Nc5n[nH]c6ccc(Cc7cc(F)cc(F)c7)cc56)c(NC5CCOCC5)c4)CC3)cc21 (centres unmarked) [TR-324, N-(5-(3,5-difluorobenzyl)-1H-indazol-3-yl)-4-(4-(2-((1-(2,6-dioxopiperidin-3-yl)-3-methyl-2-oxo-2,3-dihydro-1H-benzo[d]imidazol-5-yl)amino)ethyl)piperazin-1-yl)-2-((tetrahydro-2H-pyran-4-yl)amino)benzamide]
IC50 (KM12 cells; KM12, 72 h): 1.3 nM
percent degradation of TPM3-TRKA protein at 0.01 µM (TPM3-TRKA fusion protein; KM12, 16 h): > 80%

Cn1c(=O)n(C2CCC(=O)NC2=O)c2cccc(NCCN3CCN(c4ccc(C(=O)Nc5n[nH]c6ccc(Cc7cc(F)cc(F)c7)cc56)c(NC5CCOCC5)c4)CC3)c21 (centres unmarked) [TR-325, N-(5-(3,5-difluorobenzyl)-1H-indazol-3-yl)-4˜ (4-(2-((1-(2,6-dioxopiperidin-3-yl)-3-methyl-2-oxo-2,3-dihydro-1H-benzo[d]imidazol-4-yl)amino)ethyl)piperazin-1-yl)-2-((tetrahydro-2H-pyran-4-yl)amino)benzamide]
IC50 (KM12 cells; KM12, 72 h): 13 nM
percent degradation of TPM3-TRKA protein at 0.01 µM (TPM3-TRKA fusion protein; KM12, 16 h): > 80%

O=C1CCC(n2nnc3cccc(N4CC(CN5CCN(c6ccc(C(=O)Nc7n[nH]c8ccc(Cc9cc(F)cc(F)c9)cc78)c(NC7CCOCC7)c6)CC5)C4)c3c2=O)C(=O)N1 (centres unmarked) [TR-326, N-(5-(3,5-Difluorobenzyl)-1H-indazol-3-yl)-4-(4-((1˜ (3-(2,6-dioxopiperidin-3-yl)-4-oxo-3,4-dihydrobenzo[d][1,2,3]triazin-5-yl)azetidin-3-yl)methyl)piperazin-1-yl)-2-((tetrahydro-2H-pyran-4-yl)amino)benzamide]
IC50 (KM12 cells; [1]): 14 nM
percent degradation of TPM3-TRKA protein at 0.01 µM (TPM3-TRKA fusion protein; [2]): 50 to 80%

O=C1CCC(n2nnc3cccc(N4CC(CCN5CCN(c6ccc(C(=O)Nc7n[nH]c8ccc(Cc9cc(F)cc(F)c9)cc78)c(NC7CCOCC7)c6)CC5)C4)c3c2=O)C(=O)N1 (centres unmarked) [TR-327, N-(5-(3,5-Difluorobenzyl)-1H-indazol-3-yl)-4-(4-(2-(1-(3-(2,6-dioxopiperidin-3-yl)-4-oxo-3,4-dihydrobenzo[d][1,2,3]triazin-5-yl)azetidin-3-yl)ethyl)piperazin-1-yl)-2-((tetrahydro-2/-pyran-4-yl)amino)benzamide]
IC50 (KM12 cells; [1]): 13.3 nM
percent degradation of TPM3-TRKA protein at 0.01 µM (TPM3-TRKA fusion protein; [2]): 50 to 80%

O=C1CCC(N2C(=O)c3ccc(C4CN(CC5CCN(c6ccc(C(=O)Nc7n[nH]c8ccc(Cc9cc(F)cc(F)c9)cc78)c(NC7CCOCC7)c6)CC5)C4)cc3C2=O)C(=O)N1 (centres unmarked) [TR-328, N-(5-(3,5-Difluorobenzyl)-1H-indazol-3-yl)-4-(4-((3˜ (2-(2,6-dioxopiperidin-3-yl)-1,3-dioxoisoindolin-5-yl)azetidin-1-yl)methyl)piperidin-1-yl)-2-((tetrahydro-2/7-pyran-4-yl)amino)benzamide]
IC50 (KM12 cells; [1]): 35.9 nM
percent degradation of TPM3-TRKA protein at 0.01 µM (TPM3-TRKA fusion protein; [2]): > 80%

O=C1CCC(N2Cc3cc(C4CN(CC5CCN(c6ccc(C(=O)Nc7n[nH]c8ccc(Cc9cc(F)cc(F)c9)cc78)c(NC7CCOCC7)c6)CC5)C4)ccc3C2=O)C(=O)N1 (centres unmarked) [TR-330, N-(5-(3,5-Difluorobenzyl)-1H-indazol-3-yl)-4-(4-((3-(2-(2,6-dioxopiperidin-3-yl)-1-oxoisoindolin-5-yl)azetidin-1-yl)methyl)piperidin-1-yl)-2-((tetrahydro-2H-pyran-4-yl)amino)benzamide]
IC50 (KM12 cells; [1]): 28.5 nM
percent degradation of TPM3-TRKA protein at 0.01 µM (TPM3-TRKA fusion protein; [2]): > 80%

O=C1CCC(N2Cc3cc(N4CC(N5CCN(c6cccc(-c7cnc8ccc(N9CCC[C@@H]9c9cccc(F)c9)nn78)n6)CC5)C4)ccc3C2=O)C(=O)N1 (stereo partly drawn) [TR-331, 3-(5-(3-(4-(6-(6-((R)-2-(3-fluorophenyl)pyrrolidin-1-yl)imidazo[1,2-b]pyridazin-3-yl)pyridin-2-yl)piperazin-1-yl)azetidin-1-yl)-1-oxoisoindolin-2-yl)piperidine-2,6-dione]
IC50 (KM12 cells; [1]): 1.6 nM
percent degradation of TPM3-TRKA protein at 0.01 µM (TPM3-TRKA fusion protein; [2]): > 80%
